The text below walks through data of the Kinase Knowledgebase extract (Sharma et al. 2016).

A value given as a limit tells only on which side of the number the result lay.

The experiment has as its target MAPK14 (human) (UniProt Q16539). As to the kind of experiment: Assessment of MAPK14 Kinase Activity.

Chain of MAPK14 (human) (Q16539 whole entry, looked up): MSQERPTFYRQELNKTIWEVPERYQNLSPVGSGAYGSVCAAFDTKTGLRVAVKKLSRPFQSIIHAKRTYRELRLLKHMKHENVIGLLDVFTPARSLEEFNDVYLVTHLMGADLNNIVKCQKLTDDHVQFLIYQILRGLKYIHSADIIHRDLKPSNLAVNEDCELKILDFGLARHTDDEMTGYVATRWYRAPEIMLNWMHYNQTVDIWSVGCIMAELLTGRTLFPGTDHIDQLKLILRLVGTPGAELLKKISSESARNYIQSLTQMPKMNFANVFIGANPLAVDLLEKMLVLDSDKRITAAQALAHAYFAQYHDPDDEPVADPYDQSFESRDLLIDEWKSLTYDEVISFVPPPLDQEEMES

As a reminder, the IC50 is the concentration at which inhibition is half-maximal. Low readings indicate greater potency, high ones weaker potency. On to `Cc1ccc(NC(=O)Nc2cn(C(C)(C)C)nc2C(=O)N2CCNC(=O)C2(C)C)cc1-c1ccc(CN2CCOCC2)nc1`, for which the IC50 was less than 100 nM.

Turning to `Cc1ccc(NC(=O)Nc2sc(C(C)(C)C)cc2C(=O)N2CCN(C)C(=O)C2(C)C)cc1-c1ccc(CN2CCN(C)CC2)nc1`, the IC50 is less than 100 nM.

In the case of `Cc1ccc(NC(=O)Nc2cn(C(C)(C)C)nc2C(=O)N2CCN(C)C(=O)C2(C)C)cc1-c1ccc(CN2CCOCC2)cn1`, the IC50 was less than 100 nM.

`Cc1ccc(NC(=O)Nc2sc(C(C)(C)C)nc2C(=O)N2CCN(C)C(=O)C2(C)C)cc1-c1ccc(CN2CCOCC2)nc1` had a concentration for half-maximal inhibition (IC50) of less than 100 nM.

As to `Cc1ccc(NC(=O)Nc2cn(C(C)(C)C)nc2C(=O)N2CCN(C)C(=O)C2(C)C)cc1-c1ccc(N2CCOCC2)cn1`, the IC50 is less than 100 nM.

Turning to `Cc1ccc(NC(=O)Nc2sc(C(C)(C)C)cc2C(=O)N2CCNC(=O)C2(C)C)cc1-c1ccc(OCCN2CCNCC2)nc1`, the 50% inhibitory concentration (IC50) is less than 100 nM.

Consider `Cc1ccc(NC(=O)Nc2sc(C(C)(C)C)cc2C(=O)N2CCN(C)C(=O)C2(C)C)cc1N1C(=O)CN(C)C1=O`, for which the half-maximal inhibitory concentration (IC50) is less than 100 nM.

For the compound `COc1ccc(-c2cc(NC(=O)Nc3cc(C(C)(C)C)sc3C(=O)N3CCN(C)C(=O)C3(C)C)cc(F)c2C)cn1`, the half-maximal inhibitory concentration (IC50) is less than 100 nM.

Compound `CCc1ccc(-c2cc(NC(=O)Nc3cn(C(C)(C)C)nc3C(=O)N3CCNC(=O)C3(C)C)ccc2C)cn1` displayed an IC50 of less than 100 nM.

Take `CON(C)C(=O)c1ccc(-c2cc(NC(=O)Nc3sc(C(C)(C)C)cc3C(=O)N3CCN(C)C(=O)C3(C)C)ccc2C)cn1`: the IC50 is less than 100 nM.

As for `Cc1ccc(NC(=O)Nc2cn(C(C)(C)C)nc2C(=O)N2CCNC(=O)C2(C)C)cc1-c1ccc(N2CCOCC2)nc1`, the IC50 is less than 100 nM.

In turn, `CCNC(=O)c1ccc(-c2cc(NC(=O)Nc3sc(C(C)(C)C)cc3C(=O)N3CCNC(=O)C3(C)C)ccc2C)cn1` had a concentration for half-maximal inhibition (IC50) of less than 100 nM.

In turn, `Cc1ccc(NC(=O)Nc2sc(C(C)(C)C)cc2C(=O)N2CCNC(=O)C2(C)C)cc1N1C(=O)CN(C)C1=O` displayed a half-inhibitory concentration (IC50) of less than 100 nM.

On to `Cc1ccc(NC(=O)Nc2sc(C(C)(C)C)cc2C(=O)N2CCN(C)C(=O)C2(C)C)cc1-c1ccc(-n2ccnc2)nc1`, for which the IC50 is less than 100 nM.

As to `Cc1ccc(NC(=O)Nc2cc(C(C)(C)C)oc2C(=O)N2CCN(C)C(=O)C2(C)C)cc1-c1ccc(CN2CCOCC2)cn1`, the IC50 was less than 100 nM.

The compound `Cc1nnc(CN2CCN(C(=O)c3cc(C(C)(C)C)sc3NC(=O)Nc3ccc(C)c(-c4ccncc4)c3)C(C)(C)C2=O)o1` came in with an IC50 of less than 100 nM.

Turning to `Cc1ccc(NC(=O)Nc2sc(C(C)(C)C)cc2C(=O)N2CCN(C)C(=O)C2(C)C)cc1-c1ccc(C(C)(C)O)nc1`, the IC50 is less than 100 nM.

On to `COc1ccc(-c2cc(NC(=O)Nc3sc(C(C)(C)C)cc3C(=O)N3CCNC(=O)C3(C)C)ccc2C)nc1`, for which the half-inhibitory concentration (IC50) is less than 100 nM.

The compound `CC(C)(C)c1cc(C(=O)N2CCNC(=O)C2(C)C)c(NC(=O)Nc2cccc(-c3ccc(OCCCN4CCOCC4)nc3)c2)s1` showed an IC50 of less than 100 nM.

For the compound `COCCOc1ccc(-c2cc(NC(=O)Nc3sc(C(C)(C)C)cc3C(=O)N3CCN(C)C(=O)C3(C)C)ccc2C)cn1`, the half-inhibitory concentration (IC50) was less than 100 nM.

`Cc1ccc(NC(=O)Nc2sc(C(C)(C)C)cc2C(=O)N2CCNC(=O)C2(C)C)cc1-c1ccc(OCCN2CCOCC2)nc1` displayed a half-inhibitory concentration (IC50) of less than 100 nM.

`Cc1ccc(NC(=O)Nc2sc(C(C)(C)C)cc2C(=O)N2CCN(C)C(=O)C2(C)C)cc1-c1ccc(N2CCOCC2)nc1` came in with a half-maximal inhibitory concentration (IC50) of less than 100 nM.

`Cc1ccc(NC(=O)Nc2sc(C(C)(C)C)cc2C(=O)N2CCNC(=O)C2(C)C)cc1-c1ccc(F)nc1` gave an IC50 of less than 100 nM.

In turn, `Cc1ccc(NC(=O)Nc2sc(C(C)(C)C)cc2C(=O)N2CCNC(=O)C2(C)C)cc1-c1ccc(NCC(O)CO)nc1` (centres undefined) displayed an IC50 of less than 100 nM.

Turning to `Cc1ccc(NC(=O)Nc2sc(C(C)(C)C)cc2C(=O)N2CCNC(=O)C2(C)C)cc1-c1ccc(N2CCCCC2)nc1`, the IC50 is less than 100 nM.

Take `Cc1ccc(NC(=O)Nc2sc(C(C)(C)C)cc2C(=O)N2CCN(C)C(=O)C2(C)C)cc1-c1ccc(C[N+]2([O-])CCOCC2)nc1`: the IC50 was less than 100 nM.

With `Cc1ccc(NC(=O)Nc2sc(C(C)(C)C)cc2C(=O)N2CCN(C)C(=O)C2(C)C)cc1-c1cnc(NCC(O)CO)nc1` (centres undefined), the concentration for half-maximal inhibition (IC50) is less than 100 nM.

Regarding `CC(=O)N1CCN(C(=O)c2cc(C(C)(C)C)sc2NC(=O)Nc2ccc(C)c(-c3cccnc3)c2)CC1`, the IC50 is less than 100 nM.

`CN(C)CCOc1ccc(-c2cccc(NC(=O)Nc3sc(C(C)(C)C)cc3C(=O)N3CCNC(=O)C3(C)C)c2)cn1` registered a 50% inhibitory concentration (IC50) of less than 100 nM.
